Measured values: ChEMBL document CHEMBL1201862, “PubChem BioAssay data set” (2004)
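Interpolation was linear, between the two tested concentrations surrounding the appropriate level; five concentrations were tested over 48 hours in 96-well plates. At the GI50, growth is halved.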 Active and inactive are the calls of the source. Rule as the data show it: active = GI50 up to about 1.1 µM and inactive = higher.

Legend:
Test in all cases: inhibition of tumour cell growth, NCI panel, 48 h
[1] = tested on: SF-539
[2] = tested on: ACHN
[3] = tested on: MDA-N
[4] = tested on: A498
[5] = tested on: HOP-62
[6] = tested on: SW-620
[7] = tested on: LOX IMVI
[8] = tested on: IGROV-1
[9] = tested on: HOP-92
[10] = tested on: SNB-75
[11] = tested on: PC-3
[12] = tested on: RXF 393
[13] = tested on: 786-0
[14] = tested on: SF-295
[15] = tested on: M14
[16] = tested on: UO-31
[17] = tested on: SR
[18] = tested on: OVCAR-5
[19] = tested on: NCI-H226
[20] = tested on: UACC-62

SMILES | GI50 [1] | GI50 [2] | GI50 [3] | GI50 [4] | GI50 [5] | GI50 [6] | GI50 [7] | GI50 [8] | GI50 [9] | GI50 [10] | GI50 [11] | GI50 [12] | GI50 [13] | GI50 [14] | GI50 [15] | GI50 [16] | GI50 [17] | GI50 [18] | GI50 [19] | GI50 [20]
Cc1cc(O)nc2cc3oc4ccccc4c3cc12 | 39.8 µM (inactive) | 24.2 µM (inactive) | > 100 µM (inactive) | > 100 µM (inactive) | > 100 µM (inactive) | 35.2 µM (inactive) | > 28.2 µM (inactive) | > 63.7 µM (inactive) | > 100 µM (inactive) | > 100 µM (inactive) | > 100 µM (inactive) | > 100 µM (inactive) | 25.2 µM (inactive) | > 100 µM (inactive) | > 100 µM (inactive) | > 27.5 µM (inactive) | 5.96 µM (inactive) | > 83.2 µM (inactive) | 15.7 µM (inactive) | 17.5 µM (inactive)
O=C1NC(=S)N/C1=C\c1ccc(Br)s1 | – | > 100 µM (inactive) | > 100 µM (inactive) | 34.3 µM (inactive) | > 100 µM (inactive) | > 100 µM (inactive) | > 100 µM (inactive) | 93.5 µM (inactive) | 82 µM (inactive) | – | 94.2 µM (inactive) | > 100 µM (inactive) | > 100 µM (inactive) | > 100 µM (inactive) | – | 55.2 µM (inactive) | 33.4 µM (inactive) | > 100 µM (inactive) | 84.9 µM (inactive) | 28 µM (inactive)
O=[N+]([O-])c1ccc(N2N=C(c3ccc4ccccc4c3O)CC2c2ccc(Cl)cc2)c([N+](=O)[O-])c1 (centres undefined) | 32.3 µM (inactive) | 37.2 µM (inactive) | 16.7 µM (inactive) | 27.2 µM (inactive) | 41.2 µM (inactive) | 29.9 µM (inactive) | – | 21.5 µM (inactive) | 33 µM (inactive) | 73.5 µM (inactive) | 23.8 µM (inactive) | 28.6 µM (inactive) | 44 µM (inactive) | 34.7 µM (inactive) | 50.4 µM (inactive) | > 100 µM (inactive) | 18.2 µM (inactive) | > 100 µM (inactive) | 50.8 µM (inactive) | > 100 µM (inactive)
Cc1ccc(/C=N/Nc2nncc3ccccc23)s1 | 52.6 µM (inactive) | > 100 µM (inactive) | > 61.4 µM (inactive) | > 100 µM (inactive) | > 46.7 µM (inactive) | > 100 µM (inactive) | > 61.2 µM (inactive) | > 61 µM (inactive) | > 100 µM (inactive) | > 44.2 µM (inactive) | 96.8 µM (inactive) | > 100 µM (inactive) | > 52.2 µM (inactive) | 35.9 µM (inactive) | > 67.5 µM (inactive) | > 100 µM (inactive) | > 100 µM (inactive) | > 100 µM (inactive) | > 69.2 µM (inactive) | > 52.1 µM (inactive)
CC(=O)c1c2c(cc3c1CC1(Cc4cc5c(cc4C1)CCCC5)C3)CCCC2 | > 100 µM (inactive) | 6.49 µM (inactive) | 16.4 µM (inactive) | 56.6 µM (inactive) | > 100 µM (inactive) | – | 55.1 µM (inactive) | 45 µM (inactive) | > 100 µM (inactive) | < 0.01 µM (active) | 51.4 µM (inactive) | > 100 µM (inactive) | > 100 µM (inactive) | 37.2 µM (inactive) | > 100 µM (inactive) | 0.438 µM (active) | 2.05 µM (inactive) | > 100 µM (inactive) | 43.5 µM (inactive) | > 100 µM (inactive)
CC(Cc1cccc2c1Nc1ccccc1S2)N(C)CCO (centres undefined) | > 100 µM (inactive) | > 100 µM (inactive) | > 100 µM (inactive) | 26.4 µM (inactive) | > 100 µM (inactive) | > 100 µM (inactive) | > 100 µM (inactive) | > 100 µM (inactive) | > 100 µM (inactive) | – | > 100 µM (inactive) | > 100 µM (inactive) | > 100 µM (inactive) | > 100 µM (inactive) | > 100 µM (inactive) | > 100 µM (inactive) | > 100 µM (inactive) | > 100 µM (inactive) | > 100 µM (inactive) | > 100 µM (inactive)
C[C@]12CC[C@H](O)CC1=CC[C@@H]1C2CC[C@]2(C)Nc3c(cnn3-c3ccc(F)cc3)CC12 (some centres undefined) | 1.46 µM (inactive) | 16 µM (inactive) | > 53.8 µM (inactive) | 2.17 µM (inactive) | 10.8 µM (inactive) | – | 3.2 µM (inactive) | > 100 µM (inactive) | 21.4 µM (inactive) | 2.71 µM (inactive) | 14.1 µM (inactive) | 2.25 µM (inactive) | 3.09 µM (inactive) | 2.43 µM (inactive) | > 100 µM (inactive) | > 39.4 µM (inactive) | > 100 µM (inactive) | > 100 µM (inactive) | 40.9 µM (inactive) | 14.6 µM (inactive)
O=C(O)C1C2C=CC(C2)C1c1ccccc1 (centres undefined) | > 100 µM (inactive) | > 100 µM (inactive) | > 100 µM (inactive) | > 100 µM (inactive) | > 100 µM (inactive) | > 100 µM (inactive) | > 100 µM (inactive) | – | > 100 µM (inactive) | > 100 µM (inactive) | > 100 µM (inactive) | > 100 µM (inactive) | > 100 µM (inactive) | > 100 µM (inactive) | > 100 µM (inactive) | > 100 µM (inactive) | > 100 µM (inactive) | > 100 µM (inactive) | > 100 µM (inactive) | > 100 µM (inactive)
O=C1CCSc2c(cnc3ccccc23)N1 | 59.3 µM (inactive) | > 100 µM (inactive) | > 100 µM (inactive) | 32.1 µM (inactive) | > 100 µM (inactive) | > 100 µM (inactive) | 58.2 µM (inactive) | > 100 µM (inactive) | > 100 µM (inactive) | 27.7 µM (inactive) | 49.7 µM (inactive) | 34.4 µM (inactive) | > 100 µM (inactive) | > 100 µM (inactive) | > 100 µM (inactive) | 60.7 µM (inactive) | > 100 µM (inactive) | > 100 µM (inactive) | 34.8 µM (inactive) | > 100 µM (inactive)
CN(C)c1ccc(/C=c2/c3ccccc3n3nc4ccccc4c23)cc1 | 24.4 µM (inactive) | 38.6 µM (inactive) | 3.13 µM (inactive) | 4.3 µM (inactive) | 49.4 µM (inactive) | 12.8 µM (inactive) | 18.7 µM (inactive) | 22.1 µM (inactive) | 12.8 µM (inactive) | 2.49 µM (inactive) | 8.04 µM (inactive) | 11.9 µM (inactive) | 27 µM (inactive) | 13.2 µM (inactive) | 21.7 µM (inactive) | 39.6 µM (inactive) | 3.34 µM (inactive) | > 100 µM (inactive) | – | 15.3 µM (inactive)
[N-]=[N+]=Nc1ccc2c(c1)Sc1ccccc1N2CCCCN1CCN(C(=O)CCNC(=O)Cc2ccc(C(=O)c3ccccc3)cc2)CC1 | 6.27 µM (inactive) | 3.61 µM (inactive) | 3.75 µM (inactive) | 10 µM (inactive) | 8.45 µM (inactive) | 9.66 µM (inactive) | 2.23 µM (inactive) | 6.1 µM (inactive) | 6.71 µM (inactive) | 5.21 µM (inactive) | 3.1 µM (inactive) | 10.9 µM (inactive) | 3.76 µM (inactive) | 3.78 µM (inactive) | 4.75 µM (inactive) | 5.32 µM (inactive) | 2.08 µM (inactive) | 6.53 µM (inactive) | 13.6 µM (inactive) | 6.05 µM (inactive)
C=C1c2nc3ccccc3n2C=C(c2ccccc2)N1c1ccc(OC)cc1 | 14 µM (inactive) | 13 µM (inactive) | 49.9 µM (inactive) | > 100 µM (inactive) | – | 47.5 µM (inactive) | 50 µM (inactive) | 11 µM (inactive) | 31.1 µM (inactive) | 3.68 µM (inactive) | 19.1 µM (inactive) | 11.7 µM (inactive) | 19.5 µM (inactive) | 10.7 µM (inactive) | 13.2 µM (inactive) | 4.52 µM (inactive) | 17.7 µM (inactive) | 43.7 µM (inactive) | 11 µM (inactive) | 17.7 µM (inactive)
COc1cc2c(cc1OC)C(=O)/C(=C/c1ccc(Cl)cc1)CC2 | > 10 µM (inactive) | > 10 µM (inactive) | > 10 µM (inactive) | > 10 µM (inactive) | > 10 µM (inactive) | > 10 µM (inactive) | > 10 µM (inactive) | > 10 µM (inactive) | > 10 µM (inactive) | – | > 10 µM (inactive) | > 10 µM (inactive) | > 10 µM (inactive) | > 10 µM (inactive) | > 10 µM (inactive) | > 10 µM (inactive) | > 10 µM (inactive) | > 10 µM (inactive) | > 10 µM (inactive) | > 10 µM (inactive)
CCN1/C(=C/c2ccc3ccccc3[n+]2CC)C=Cc2ccccc21 | 1.89 µM (inactive) | 2.33 µM (inactive) | 0.39 µM (active) | 2.13 µM (inactive) | 0.805 µM (active) | 0.762 µM (active) | 0.561 µM (active) | 2.51 µM (inactive) | 1.44 µM (inactive) | 0.35 µM (active) | 0.445 µM (active) | 2.12 µM (inactive) | 2.32 µM (inactive) | 0.479 µM (active) | 0.851 µM (active) | 3.09 µM (inactive) | 0.164 µM (active) | 5.37 µM (inactive) | 1.66 µM (inactive) | 0.767 µM (active)
